Experimental data from ChEMBL document CHEMBL5113492, “Design, synthesis, and biological evalution of bifunctional inhibitors against Hsp90-HDAC6 interplay” (Eur J Med Chem, 2022).
Activity calls are given as the source filed them. No cut-off for these calls is given here.

Tests used:
[1] = Toxicity in NSG mouse xenografted with human NCI-H1975 cells assessed as abnormal behavior at 50 mg/kg,ip measured after 6 weeks; assay type: organism-based; conditions: in vivo, 1008 h
[2] = Toxicity in NSG mouse xenografted with human NCI-H1975 cells assessed as change in body weight at 25 mg/kg,ip measured after 6 weeks; assay type: organism-based; conditions: in vivo, 1008 h
[3] = tested on: Mus musculus; assay: In vivo inhibition of HSP90 in human NCI-H1975 cells xenografted with NSG mouse assessed as downregulation of EGFR expression at 25 mg/kg,ip measured after 6 weeks by immunohistochemistry analysis; assay type: functional, organism-based
[4] = Toxicity in NSG mouse xenografted with human NCI-H1975 cells assessed as change in number of retina at 50 mg/kg,ip measured after 6 weeks by H and E staining based assay; assay type: organism-based; conditions: in vivo, 1008 h
[5] = target: T1, Protein deacetylase HDAC6 (Homo sapiens) (UniProt Q9UBN7); assay: Inhibition of HDAC6 in human NCI-H1975 cells assessed as downregulation of HDAC6 expression at 0.05 to 2 uM incubated for 24 hrs by western blot analysis; assay type: cell-based; conditions: dose 0.05-2 µM, DDE = dose-dependent effect
T1 sequence (whole entry): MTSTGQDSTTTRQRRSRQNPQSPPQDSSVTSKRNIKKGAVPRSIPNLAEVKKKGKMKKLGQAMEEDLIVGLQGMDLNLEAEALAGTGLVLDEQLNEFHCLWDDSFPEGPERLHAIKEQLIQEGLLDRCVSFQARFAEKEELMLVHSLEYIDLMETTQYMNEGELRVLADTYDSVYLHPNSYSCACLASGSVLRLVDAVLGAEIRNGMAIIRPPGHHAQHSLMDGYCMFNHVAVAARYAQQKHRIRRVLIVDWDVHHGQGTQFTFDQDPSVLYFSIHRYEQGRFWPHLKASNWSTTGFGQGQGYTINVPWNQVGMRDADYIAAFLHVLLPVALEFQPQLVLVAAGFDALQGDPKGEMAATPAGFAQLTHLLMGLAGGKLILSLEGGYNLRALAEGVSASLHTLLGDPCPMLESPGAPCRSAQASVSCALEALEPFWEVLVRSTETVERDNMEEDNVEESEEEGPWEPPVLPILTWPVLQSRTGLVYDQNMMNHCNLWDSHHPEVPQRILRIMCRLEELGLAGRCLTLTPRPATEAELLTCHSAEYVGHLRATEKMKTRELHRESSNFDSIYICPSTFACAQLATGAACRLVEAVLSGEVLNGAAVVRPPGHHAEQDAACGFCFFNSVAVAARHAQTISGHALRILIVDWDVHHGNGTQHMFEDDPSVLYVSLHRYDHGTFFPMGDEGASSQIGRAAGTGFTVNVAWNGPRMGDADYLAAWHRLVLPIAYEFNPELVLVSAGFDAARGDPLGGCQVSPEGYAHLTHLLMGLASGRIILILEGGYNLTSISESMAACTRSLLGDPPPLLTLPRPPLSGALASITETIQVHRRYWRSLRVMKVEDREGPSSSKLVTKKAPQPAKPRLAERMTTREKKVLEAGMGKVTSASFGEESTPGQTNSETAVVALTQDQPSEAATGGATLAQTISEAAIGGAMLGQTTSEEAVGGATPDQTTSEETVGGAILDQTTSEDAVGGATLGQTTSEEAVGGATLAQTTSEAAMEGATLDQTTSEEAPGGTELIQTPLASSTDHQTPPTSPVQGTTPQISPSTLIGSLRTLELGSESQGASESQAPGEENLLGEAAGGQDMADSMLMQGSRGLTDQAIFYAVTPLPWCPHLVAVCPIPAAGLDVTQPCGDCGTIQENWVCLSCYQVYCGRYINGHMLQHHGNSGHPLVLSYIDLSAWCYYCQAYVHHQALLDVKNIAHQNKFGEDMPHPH

[6] = tested on: NCI-H1975; assay: Antitumor activity against NSG mouse xenografted with human NCI-H1975 cells assessed as reduction on tumor growth at 50 mg/kg,ip measured after 6 weeks; assay type: functional, organism-based
[7] = target: T2, Heat shock protein HSP90 (Homo sapiens) (UniProt P07900+P08238); assay: Inhibition of HSP90 in human NCI-H1975 cells assessed as downregulation of Her2 expression at 2 uM incubated for 24 hrs by western blot analysis; assay type: cell-based
[8] = target: T2, Heat shock protein HSP90 (Homo sapiens); assay: Inhibition of HSP90 in human NCI-H1975 cells assessed as downregulation of CDK-4 expression at 2 uM incubated for 24 hrs by western blot analysis; assay type: cell-based
[9] = target: T1, Protein deacetylase HDAC6 (Homo sapiens); assay: Inhibition of HDAC6 in human NCI-H1975 cells assessed as increase in acetylation of alpha tubulin at 2 uM incubated for 24 hrs by western blot analysis; assay type: cell-based
[10] = target: T1, Protein deacetylase HDAC6 (Homo sapiens); assay: Inhibition of HDAC6 in human NCI-H1975 cells assessed as increase in acetylation of HSP90 at 2 uM incubated for 24 hrs by western blot analysis; assay type: cell-based
[11] = Toxicity in NSG mouse xenografted with human NCI-H1975 cells assessed as abnormal behavior at 25 mg/kg,ip measured after 6 weeks; assay type: organism-based; conditions: in vivo, 1008 h
[12] = target: T2, Heat shock protein HSP90 (Homo sapiens); assay: Inhibition of HSP90 in human NCI-H1975 cells assessed as downregulation of EGFR expression at 2 uM incubated for 24 hrs by western blot analysis; assay type: cell-based
[13] = target: T2, Heat shock protein HSP90 (Homo sapiens); assay: Inhibition of HSP90 in human NCI-H1975 cells assessed as downregulation of Akt expression at 2 uM incubated for 24 hrs by western blot analysis; assay type: cell-based
[14] = tested on: NCI-H1975; assay: Induction of apoptosis in human NCI-H1975 cells assessed as caspase-8 cleavage at 0.05 to 2 uM incubated for 24 hrs by western blot analysis; assay type: functional, cell-based; conditions: dose 0.05-2 µM, DDE = dose-dependent effect
[15] = target: T2, Heat shock protein HSP90 (Homo sapiens); assay: Inhibition of HSP90 in human NCI-H1975 cells assessed as downregulation of Met expression at 2 uM incubated for 24 hrs by western blot analysis; assay type: cell-based
[16] = target: T1, Protein deacetylase HDAC6 (Homo sapiens); assay: Inhibition of HDAC6 in human NCI-H1975 cells assessed as increase in acetylation of alpha tubulin at 1 uM incubated for 24 hrs by western blot analysis; assay type: cell-based
[17] = target: T1, Protein deacetylase HDAC6 (Homo sapiens); assay: Inhibition of HDAC6 in human NCI-H1975 cells assessed as microtubule polymerization at 1 uM incubated for 24 hrs by DAPI staining based immunofluorescence microscopy; assay type: cell-based
[18] = Toxicity in NSG mouse xenografted with human NCI-H1975 cells assessed as change in number of retina at 25 mg/kg,ip measured after 6 weeks by H and E staining based assay; assay type: organism-based; conditions: in vivo, 1008 h
[19] = tested on: NCI-H1975; assay: Antitumor activity against NSG mouse xenografted with human NCI-H1975 cells assessed as reduction on tumor growth at 50 mg/kg,ip measured after 2 weeks; assay type: functional, organism-based
[20] = tested on: NCI-H1975; assay: Antiproliferative activity against human NCI-H1975 cells assessed as growth inhibition incubated upto 72 hrs by CellTiter96 Aqueous One Solution Cell Proliferation assay; assay type: functional
[21] = target: Histone deacetylase 3 (Homo sapiens, UniProt O15379); assay: Inhibition of HDAC3 (unknown origin) using fluorogenic substrate incubated for 30 mins by fluorescence plate reader
[22] = tested on: Mus musculus; assay: In vivo inhibition of HDAC1 in human NCI-H1975 cells xenografted with NSG mouse assessed as increase in acetylation of Histone H3 at 50 mg/kg,ip measured after 6 weeks by immunohistochemistry analysis; assay type: functional, organism-based
[23] = Toxicity in NSG mouse xenografted with human NCI-H1975 cells assessed as change in body weight at 50 mg/kg,ip measured after 6 weeks; assay type: organism-based; conditions: in vivo, 1008 h

Chain of Histone deacetylase 3 (O15379 whole entry): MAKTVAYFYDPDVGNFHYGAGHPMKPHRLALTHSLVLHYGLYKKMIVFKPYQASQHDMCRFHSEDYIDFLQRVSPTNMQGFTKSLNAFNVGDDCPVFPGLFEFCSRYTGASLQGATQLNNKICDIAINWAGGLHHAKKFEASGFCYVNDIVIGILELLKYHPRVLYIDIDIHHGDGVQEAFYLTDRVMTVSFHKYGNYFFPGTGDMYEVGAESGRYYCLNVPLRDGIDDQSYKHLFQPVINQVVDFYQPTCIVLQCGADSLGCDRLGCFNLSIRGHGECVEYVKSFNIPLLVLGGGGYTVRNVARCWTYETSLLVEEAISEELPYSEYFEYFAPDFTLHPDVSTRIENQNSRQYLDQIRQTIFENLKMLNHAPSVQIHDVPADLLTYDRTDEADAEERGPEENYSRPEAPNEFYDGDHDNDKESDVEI

Q: Which results are given for CC(C)c1cc(C(=O)N(C)Cc2ccc(C(=O)NO)cc2)c(O)cc1O?
A: Activity [1]: Non-Toxic; Activity [2]: Non-Toxic; inhibition [3]: Active; Activity [4]: Non-Toxic; inhibition [5]: Dde; Activity [6]: Active; inhibition [7]: Active; inhibition [8]: Active; inhibition [9]: Active; inhibition [10]: Active; Activity [11]: Non-Toxic; inhibition [12]: Active; inhibition [13]: Active; Activity [14]: Dde; inhibition [15]: Active; inhibition [16]: Active; inhibition [17]: Active; Activity [18]: Non-Toxic; Activity [19]: Active; GI50 [20]: 1700 nM; IC50 [21]: 1540 nM; inhibition [22]: Active; Activity [23]: Non-Toxic
